# Measured values taken from patent US20230087359A1, “CANNABINOID COMPOSITIONS AND METHODS OF USE THEREOF” (DAY THREE LABS MAN[…]., priority 2017, published 2023).
# Tested on: pentobarbital-induced sleep
# Assay: Loss Of Righting Reflex (LORR) test, pentobarbital-induced sleep in mice
# Format: in vivo, mouse (7-week-old male Balb/C mice)
# [1] = LORR test, IP treatment 30 min before pentobarbital 30 or 40 mg/kg IP, diazepam 3 mg/kg
smiles,measurement,setting,value
CN1C(=O)CN=C(c2ccccc2)c2cc(Cl)ccc21 [diazepam],percentage of mice in treatment group that fell asleep after pentobarbital administration,"Example 1, FIG. 3",92%
same,percentage of subjects with a transient awakening (woke up once) during the sleep session,"Example 1, FIG. 4",25%
same,percentage of subjects with no transient awakenings during the sleep session,"Example 1, FIG. 4",75%
same,percentage of mice in treatment group that fell asleep after pentobarbital administration (response rate),"Example 2, FIG. 7",86%
same,mean sleep duration,[1],60 to 90 min
same,mean sleep onset,[1],3 to 5 min
